From ChEMBL document CHEMBL1132830, “Serotonin transporter inhibitors: synthesis and binding potency of 2'-methyl- and 3'-methyl-6-nitroquipazine” (Bioorg Med Chem Lett, 2000)

Tests used:
[1] = target: Sodium-dependent serotonin transporter (Rattus norvegicus, UniProt P31652); experiment: In vitro radioligand [3H]-paroxetine from rat cortical Serotonin transporter
[2] = Equipotent molar ratio of compound to that of standard (compound 1) was evaluated

Chain of Sodium-dependent serotonin transporter (P31652 whole entry): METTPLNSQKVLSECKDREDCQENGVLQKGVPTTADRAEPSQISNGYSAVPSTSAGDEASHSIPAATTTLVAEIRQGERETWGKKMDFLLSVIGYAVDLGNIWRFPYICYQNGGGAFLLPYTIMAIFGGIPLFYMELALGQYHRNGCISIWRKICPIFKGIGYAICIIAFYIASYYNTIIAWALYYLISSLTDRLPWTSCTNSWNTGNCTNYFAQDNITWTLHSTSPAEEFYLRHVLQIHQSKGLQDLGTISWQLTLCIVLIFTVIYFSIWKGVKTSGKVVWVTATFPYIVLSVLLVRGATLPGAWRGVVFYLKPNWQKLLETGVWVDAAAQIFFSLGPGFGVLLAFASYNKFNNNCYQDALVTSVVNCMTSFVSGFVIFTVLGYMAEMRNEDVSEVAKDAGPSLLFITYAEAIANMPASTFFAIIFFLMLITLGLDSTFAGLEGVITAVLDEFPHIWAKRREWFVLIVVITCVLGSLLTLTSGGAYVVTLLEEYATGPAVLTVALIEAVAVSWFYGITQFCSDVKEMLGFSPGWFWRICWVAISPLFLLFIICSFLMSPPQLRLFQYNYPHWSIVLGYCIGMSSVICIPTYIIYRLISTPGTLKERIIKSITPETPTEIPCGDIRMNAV

In the case of `CC1CN(c2ccc3cc([N+](=O)[O-])ccc3n2)CCN1` (configuration not stated), the Ki [1] is reported as 4.56 nM and the Ratio [2] is reported as 28.
With `O=[N+]([O-])c1ccc2nc(N3CCNCC3)ccc2c1I` the Ki [1] was 0.19 nM.
`O=[N+]([O-])c1ccc2nc(N3CCNCC3)ccc2c1` [6-NITROQUIPAZINE] showed a Ki [1] of 0.163 nM and a Ratio [2] of 1.
`CC1CNCCN1c1ccc2cc([N+](=O)[O-])ccc2n1` (configuration not stated) gave a Ki [1] of 0.081 nM and a Ratio [2] of 0.49.
